Results reported in patent US10364360B2, “Surface coating material, coating film, and hydrophilic oil repellent member” (MITSUBISHI MATERIALS CORPORATION, priority 2014, dated 2019).

Assay: Solubility of the compound in water
Format: physicochemical
Settings: room temperature (25° C.)
Procedure: 23.5 g of perfluoro(3-dibutylaminopropionic acid) was neutralized with 1.5 g of calcium hydroxide in a methanol/water mixed solution. The precipitated crystals were separated by filtration, and dried at 100° C., whereby 23.5 g of perfluoro(3-dibutylaminopropionic acid) calcium represented by the following Formula (378) was obtained (yield of 97%). The solubility of the present compound in water at room temperature (25° C.) was 2 [g/100 g-H2O].

## O=C(O)C(F)(F)C(F)(F)N(C(F)(F)C(F)(F)C(F)(F)C(F)(F)F)C(F)(F)C(F)(F)C(F)(F)C(F)(F)F.[Ca] [Synthesis Example 3, perfluoro(3-dibutylaminopropionic acid) calcium]
  solubility of the present compound in water: 2 g/100 g-H2O
